Ki data for 8 compounds are collected here from BindingDB's records for doi:10.1021/jm980560x (University of Minnesota, 1999).

A word on the Ki: it is a dissociation constant, usually derived from enzyme kinetics or from competition with a known ligand.

In one assay the target is Sigma-2 receptor (Rattus norvegicus). Nature of the assay: Binding affinity against Sigma-2 receptor in rat liver membranes using [3H]DTG (DuPont-NEN) as radioligand in the presence of (+)-pentazocine (100 nM).
Take `O[C@@H]1C[C@H]2CCCN(C/C=C/I)[C@@H]2C[C@H]1N1CCC(c2ccccc2)CC1` [(4aR,6R,7R,8aR)-1-((E)-3-Iodo-allyl)-7-(4-phenyl-piperidin-1-yl)-decahydro-quinolin-6-ol]: the Ki was 363 nM.

On to `O[C@@H]1CCN(Cc2cccc(I)c2)C[C@H]1N1CCC(c2ccccc2)CC1` [(-)-1''-(3-Iodo-benzyl)-4-phenyl-[1,3'']bipiperidinyl-4''-ol], for which the Ki came out at 190 nM.

Target in another assay: not listed separately
Nature of the assay: Displacement of [3H]vesamicol from Vesicular Acetylcholine Transporter (VAChT).
`O[C@@H]1CCNC[C@H]1N1CCC(c2ccccc2)CC1` displayed an inhibition constant (Ki) of 2900 nM.

With `O[C@@H]1C[C@@H]2[C@H](CCCN2Cc2cccc(I)c2)C[C@H]1N1CCC(c2ccccc2)CC1` [(4aR,6R,7R,8aR)-1-(3-Iodo-benzyl)-6-(4-phenyl-piperidin-1-yl)-decahydro-quinolin-7-ol], the affinity, expressed as Ki, was 5.2 nM. Still for that read-out and setting: the result for `O[C@@H]1C[C@@H]2[C@H](CCCN2Cc2ccc(F)cc2)C[C@H]1N1CCC(c2ccccc2)CC1` [(4aR,6R,7R,8aR)-1-(4-Fluoro-benzyl)-6-(4-phenyl-piperidin-1-yl)-decahydro-quinolin-7-ol] reads 10 nM. `O[C@@H]1C[C@H]2CCCN(C/C=C/I)[C@@H]2C[C@H]1N1CCC(c2ccccc2)CC1` [(4aR,6R,7R,8aR)-1-((E)-3-Iodo-allyl)-7-(4-phenyl-piperidin-1-yl)-decahydro-quinolin-6-ol]: the inhibition constant (Ki) is 0.4 nM. Regarding `O=C(c1ccccc1)N1CCC[C@@H]2C[C@@H](O)[C@H](N3CCC(c4ccccc4)CC3)C[C@H]21` [[(4aR,6R,7R,8aR)-6-Hydroxy-7-(4-phenyl-piperidin-1-yl)-octahydro-quinolin-1-yl]-phenyl-methanone], the Ki is 0.3 nM.

Regarding `O[C@@H]1C[C@H]2CCCN(Cc3cccc(I)c3)[C@@H]2C[C@H]1N1CCC(c2ccccc2)CC1` [trans-trans-1-(3-iodobenzyl)-7-(4-phenylpiperidin-1-yl)-decahydroquinolin-6-ol], the affinity, expressed as Ki, was 0.26 nM. The compound `O[C@@H]1C[C@H]2CCCN(Cc3ccc(F)cc3)[C@@H]2C[C@H]1N1CCC(c2ccccc2)CC1` [trans-trans-1-(4-fluorobenzyl)-7-(4-phenylpiperidin-1-yl)-decahydroquinolin-6-ol] displayed an inhibitory constant (Ki) of 0.99 nM.
